Source: PubChem BioAssay AID2060899 (Molecular Pharmacology Branch, DTP, NCI, 2025)

Tested on: 565726-208-R1-J5-PDC complex spheroids, growth inhibition
Assay: Anticancer human tumor 565726-208-R1-J5-PDC patient-derived pancreatic adenocarcinoma cell line growth inhibition [RAS]
Conditions: for viability, T/C: stronger effect = lower value
In short: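 Agents were tested in combination matrices in half-log decrements from a top concentration at or near clinical Cmax (10 microM if undetermined). Targets were multi-cell spheroids of tumour lines plus HUVEC and MSC stromal cells.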

[1] = curve of first compound, second compound 0.0316 µM
[2] = curve of first compound, second compound 0.1 µM
[3] = curve of first compound, second compound 0.316 µM
[4] = curve of first compound, second compound 1 µM
[5] = second compound 0.0316 µM, first compound 0.0316 µM
[6] = second compound 0.0316 µM, first compound 0.1 µM
[7] = second compound 0.0316 µM, first compound 0.316 µM
[8] = second compound 0.0316 µM, first compound 1 µM
[9] = second compound 0.1 µM, first compound 0.0316 µM
[10] = second compound 0.1 µM, first compound 0.1 µM
[11] = second compound 0.1 µM, first compound 0.316 µM
[12] = second compound 0.1 µM, first compound 1 µM
[13] = second compound 0.316 µM, first compound 0.0316 µM
[14] = second compound 0.316 µM, first compound 0.1 µM
[15] = second compound 0.316 µM, first compound 0.316 µM
[16] = second compound 0.316 µM, first compound 1 µM
[17] = second compound 1 µM, first compound 0.0316 µM
[18] = second compound 1 µM, first compound 0.1 µM
[19] = second compound 1 µM, first compound 0.316 µM
[20] = second compound 1 µM, first compound 1 µM
[21] = curve of first compound, second compound 0.00316 µM
[22] = curve of first compound, second compound 0.01 µM
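Note: spheroids exposed to compounds for seven days before readout.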
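Throughout, for viability, T/C: 100% = DMSO vehicle control viability.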

C=CC(=O)N1CCN(c2nc(OCC3CCCN3C)nc3c(F)c(-c4nc(N)cc(C)c4C(F)(F)F)c(Cl)cc23)C(C)C1 (configuration not stated) + C#Cc1c(F)ccc2cc(O)cc(-c3ncc4c(N5CC6CCC(C5)N6)nc(OCC56CCCN5CC(F)C6)nc4c3F)c12 gave an IC50 [1] greater than 1000 nM, an IC50 [2] greater than 1000 nM and an IC50 [3] greater than 1000 nM. For the same compound, the IC50 [4] was greater than 1000 nM, the IC50 (curve of first compound, second compound 3.16 µM) was greater than 1000 nM and the IC50 (curve of first compound, second compound 10 µM) was greater than 1000 nM. For the same compound, the viability, T/C (second compound 0.0316 µM, first compound 0.00316 µM) was 95.7%, the viability, T/C (second compound 0.0316 µM, first compound 0.01 µM) was 138% and the viability, T/C [5] was 98.9%. It also gave a viability, T/C [6] of 103%, a viability, T/C [7] of 87% and a viability, T/C [8] of 104%. For the same compound, the viability, T/C (second compound 0.1 µM, first compound 0.00316 µM) was 101%, the viability, T/C (second compound 0.1 µM, first compound 0.01 µM) was 124% and the viability, T/C [9] was 90.8%. For the same compound, the viability, T/C [10] was 94.2%, the viability, T/C [11] was 110% and the viability, T/C [12] was 106%. The viability, T/C (second compound 0.316 µM, first compound 0.00316 µM) was 94.2%, the viability, T/C (second compound 0.316 µM, first compound 0.01 µM) was 132% and the viability, T/C [13] was 84.7%. For the same compound, the viability, T/C [14] was 107%, the viability, T/C [15] was 87.7% and the viability, T/C [16] was 113%. The viability, T/C (second compound 1 µM, first compound 0.00316 µM) was 88.8%, the viability, T/C (second compound 1 µM, first compound 0.01 µM) was 113% and the viability, T/C [17] was 81.3%. The viability, T/C [18] was 77.1%, the viability, T/C [19] was 82.8% and the viability, T/C [20] was 84.2%. The viability, T/C (second compound 3.16 µM, first compound 0.00316 µM) was 65.5%, the viability, T/C (second compound 3.16 µM, first compound 0.01 µM) was 88.7% and the viability, T/C (second compound 3.16 µM, first compound 0.0316 µM) was 70%. For the same compound, the viability, T/C (second compound 3.16 µM, first compound 0.1 µM) was 65.6%, the viability, T/C (second compound 3.16 µM, first compound 0.316 µM) was 83% and the viability, T/C (second compound 3.16 µM, first compound 1 µM) was 93.5%. For the same compound, the viability, T/C (second compound 10 µM, first compound 0.00316 µM) was 52.3%, the viability, T/C (second compound 10 µM, first compound 0.01 µM) was 73.5% and the viability, T/C (second compound 10 µM, first compound 0.0316 µM) was 78.3%. It also gave a viability, T/C (second compound 10 µM, first compound 0.1 µM) of 72.4%, a viability, T/C (second compound 10 µM, first compound 0.316 µM) of 69.5% and a viability, T/C (second compound 10 µM, first compound 1 µM) of 71%.
For C#Cc1c(F)ccc2cc(O)cc(-c3ncc4c(N5CC6CCC(C5)N6)nc(OCC56CCCN5CC(F)C6)nc4c3F)c12 (configuration not stated), the viability, T/C (compound 0.0316 µM) was 104% [middle of 8 runs], the viability, T/C (compound 0.1 µM) was 101% [middle of 8 runs] and the viability, T/C (compound 0.316 µM) was 94.6% [middle of 8 runs]. For the same compound, the viability, T/C (compound 1 µM) was 84.3% [middle of 8 runs], the viability, T/C (compound 3.16 µM) was 78.7% [middle of 8 runs] and the IC50 (compound alone, run of 07/15/2024) was greater than 10000 nM.
For CC(=O)OC12COC1CC(O)C1(C)C(=O)C(O)C3=C(C)C(OC(=O)C(O)C(NC(=O)OC(C)(C)C)c4ccccc4)CC(O)(C(OC(=O)c4ccccc4)C21)C3(C)C (configuration not stated) + C=CC(=O)N1CCN(c2nc(OCC3CCCN3C)nc3c(F)c(-c4nc(N)cc(C)c4C(F)(F)F)c(Cl)cc23)C(C)C1, the IC50 [21] was less than 31.6 nM, the IC50 [22] was less than 31.6 nM and the IC50 [1] was less than 31.6 nM. The IC50 [2] was less than 31.6 nM, the IC50 [3] was less than 31.6 nM and the IC50 [4] was less than 31.6 nM. The viability, T/C (second compound 0.00316 µM, first compound 0.0316 µM) was 22.4%, the viability, T/C (second compound 0.00316 µM, first compound 0.1 µM) was 20.6% and the viability, T/C (second compound 0.00316 µM, first compound 0.316 µM) was 22.6%. The viability, T/C (second compound 0.00316 µM, first compound 1 µM) was 19.4%, the viability, T/C (second compound 0.00316 µM, first compound 3.16 µM) was 30% and the viability, T/C (second compound 0.00316 µM, first compound 10 µM) was 37.1%. The viability, T/C (second compound 0.01 µM, first compound 0.0316 µM) was 25%, the viability, T/C (second compound 0.01 µM, first compound 0.1 µM) was 21.8% and the viability, T/C (second compound 0.01 µM, first compound 0.316 µM) was 21.1%. It also gave a viability, T/C (second compound 0.01 µM, first compound 1 µM) of 23.5%, a viability, T/C (second compound 0.01 µM, first compound 3.16 µM) of 32.6% and a viability, T/C (second compound 0.01 µM, first compound 10 µM) of 47.7%. It also gave a viability, T/C [5] of 31.6%, a viability, T/C [6] of 26.6% and a viability, T/C [7] of 24.9%. It also gave a viability, T/C [8] of 21%, a viability, T/C (second compound 0.0316 µM, first compound 3.16 µM) of 29.5% and a viability, T/C (second compound 0.0316 µM, first compound 10 µM) of 44.8%. It also gave a viability, T/C [9] of 26%, a viability, T/C [10] of 23% and a viability, T/C [11] of 26%. It also gave a viability, T/C [12] of 19%, a viability, T/C (second compound 0.1 µM, first compound 3.16 µM) of 27.7% and a viability, T/C (second compound 0.1 µM, first compound 10 µM) of 42.8%. The viability, T/C [13] was 21.1%, the viability, T/C [14] was 26.6% and the viability, T/C [15] was 22.4%. The viability, T/C [16] was 24.9%, the viability, T/C (second compound 0.316 µM, first compound 3.16 µM) was 28% and the viability, T/C (second compound 0.316 µM, first compound 10 µM) was 45.9%. For the same compound, the viability, T/C [17] was 34.8%, the viability, T/C [18] was 24.1% and the viability, T/C [19] was 22.1%. For the same compound, the viability, T/C [20] was 26.4%, the viability, T/C (second compound 1 µM, first compound 3.16 µM) was 34.4% and the viability, T/C (second compound 1 µM, first compound 10 µM) was 50.1%.
CCc1c2c(nc3ccc(O)cc13)-c1cc3c(c(=O)n1C2)COC(=O)[C@]3(O)CC + C=CC(=O)N1CCN(c2nc(OCC3CCCN3C)nc3c(F)c(-c4nc(N)cc(C)c4C(F)(F)F)c(Cl)cc23)C(C)C1 was tested, and the IC50 [21] was 4.93 nM, the IC50 [22] was 4.61 nM and the IC50 [1] was 5.78 nM. The IC50 [2] was 5.53 nM, the IC50 [3] was 3.96 nM and the IC50 [4] was 5.1 nM. It also gave a viability, T/C (second compound 0.00316 µM, first compound 0.000949 µM) of 88.2%, a viability, T/C (second compound 0.00316 µM, first compound 0.003 µM) of 61.3% and a viability, T/C (second compound 0.00316 µM, first compound 0.00949 µM) of 34.5%. For the same compound, the viability, T/C (second compound 0.00316 µM, first compound 0.03 µM) was 23.3%, the viability, T/C (second compound 0.00316 µM, first compound 0.0949 µM) was 15.2% and the viability, T/C (second compound 0.00316 µM, first compound 0.3 µM) was 7.24%. It also gave a viability, T/C (second compound 0.01 µM, first compound 0.000949 µM) of 98.5%, a viability, T/C (second compound 0.01 µM, first compound 0.003 µM) of 58.2% and a viability, T/C (second compound 0.01 µM, first compound 0.00949 µM) of 33.8%. The viability, T/C (second compound 0.01 µM, first compound 0.03 µM) was 24.9%, the viability, T/C (second compound 0.01 µM, first compound 0.0949 µM) was 14.3% and the viability, T/C (second compound 0.01 µM, first compound 0.3 µM) was 8.62%. It also gave a viability, T/C (second compound 0.0316 µM, first compound 0.000949 µM) of 121%, a viability, T/C (second compound 0.0316 µM, first compound 0.003 µM) of 68.4% and a viability, T/C (second compound 0.0316 µM, first compound 0.00949 µM) of 35.4%. The viability, T/C (second compound 0.0316 µM, first compound 0.03 µM) was 21.1%, the viability, T/C (second compound 0.0316 µM, first compound 0.0949 µM) was 13.2% and the viability, T/C (second compound 0.0316 µM, first compound 0.3 µM) was 8.94%. For the same compound, the viability, T/C (second compound 0.1 µM, first compound 0.000949 µM) was 134%, the viability, T/C (second compound 0.1 µM, first compound 0.003 µM) was 64.1% and the viability, T/C (second compound 0.1 µM, first compound 0.00949 µM) was 39.3%. It also gave a viability, T/C (second compound 0.1 µM, first compound 0.03 µM) of 18.2%, a viability, T/C (second compound 0.1 µM, first compound 0.0949 µM) of 15.1% and a viability, T/C (second compound 0.1 µM, first compound 0.3 µM) of 8.7%. The viability, T/C (second compound 0.316 µM, first compound 0.000949 µM) was 113%, the viability, T/C (second compound 0.316 µM, first compound 0.003 µM) was 53% and the viability, T/C (second compound 0.316 µM, first compound 0.00949 µM) was 33.1%. The viability, T/C (second compound 0.316 µM, first compound 0.03 µM) was 21.1%, the viability, T/C (second compound 0.316 µM, first compound 0.0949 µM) was 13.3% and the viability, T/C (second compound 0.316 µM, first compound 0.3 µM) was 8.96%. The viability, T/C (second compound 1 µM, first compound 0.000949 µM) was 130%, the viability, T/C (second compound 1 µM, first compound 0.003 µM) was 59.1% and the viability, T/C (second compound 1 µM, first compound 0.00949 µM) was 35%. For the same compound, the viability, T/C (second compound 1 µM, first compound 0.03 µM) was 32.9%, the viability, T/C (second compound 1 µM, first compound 0.0949 µM) was 18.6% and the viability, T/C (second compound 1 µM, first compound 0.3 µM) was 11.7%.
